Test results from EP0403301B1, “Aerosols of pyrido[1,2-a]pyrimidine compounds” (TOKYO TANABE COMPANY LIMITED, priority 1989, dated 1990).
Values after ≈ are worked out from the molar mass of the structure shown.

Legend:
Format in all cases: physicochemical
[1] = dispersibility and cohesiveness of fine particles in propellant with dispersant (naked eye); details: AS-148 in place of AS-35
Procedure: First of all, a series of experiments were carried out to evaluate the effectiveness of conventional dispersants. More specifically, various ester forms of non-ionic surfactants which are non-irritating to the site of application were tested by using an aerosol composition consisting of finely powdered AS-35 and a propellant comprising a 4:6 mixture of Freon 11 and Freon 12. Thus, the solubility of the dispersants in the propellant, the dispersibility of fine particles, the cohesiveness of fine particles, and variation in the amount delivered were examined.
Among the aforesaid test items, the solubility of a dispersant in the propellant was evaluated by placing 90 mg of the dispersant in a transparent container made of polyethylene terephthalate (hereinafter referred to as PET), attaching a valve thereto, injecting the propellant (i.e., a 4:6 mixture of Freon 11 and Freon 12) thereinto until the contents amounted to 12.0 g, shaking the container vigorously, and then observing the contents with the naked eye. […]

solubility in water = assay: solubility in water
Procedure: (§1) Inhalations for use as antiallergic agents include aqueous solution type aerosol inhalations, solution type aerosol inhalations and suspension type aerosol inhalations. The solubilities of pyrido[1,2-a]pyrimidine compounds in water are very low. For example, the solubility of 9-[(4-acetyl-3-hydroxy-2-n-propylphenoxy)methyl]-3-(1H-tetrazol-5-yl)-4H-pyrido[1,2-a]pyrimidin-4-one (hereinafter referred to as AS-35) in water is as low as 0.4 µg/ml. Accordingly, it would be impractical to prepare an aqueous solution type aerosol inhalation of AS-35, because this would require massive containers and devices. Moreover, in order to prepare a solution type aerosol inhalation of a pyrido[1,2-a]pyrimidine compound, it must be dissolved in a propellant or a mixture of a propellant and a commonly used solubilizing agent. […] Moreover, AS-35 is also insoluble in mixtures of such propellants and commonly used solubilizing agents. Thus, it is impossible to prepare a solution type aerosol inhalation of AS-35.

[2] = solubility in propellants and in propellant/solubilizing agent mixtures; details: Freon 11, 12, 13, 21, 22, 113, 114, 115, 123, 124, 132b, 133a, 134a, 141b, 142b, 152a, 225ca, 225cb, C318
Procedure: as §1

Compound	results of Table 1 (dispersibility, cohesiveness with conventional dispersants) [1]	solubility (solubility in water)	solubility in commonly used propellants [2]
CCCc1c(OCc2cccn3c(=O)c(CC(=O)O)cnc23)ccc(C(C)=O)c1O [AS-148, [9-(4-acetyl-3-hydroxy-2-n-propylphenoxymethyl)-4-oxo-pyrido[1,2-a]pyrimidin-3-yl]-acetic acid]	exactly the same results as AS-35	–	–
CCCc1c(OCc2cccn3c(=O)c(-c4nnn[nH]4)cnc23)ccc(C(C)=O)c1O [AS-35, 9-[(4-acetyl-3-hydroxy-2-n-propylphenoxy)methyl]-3-(1H-tetrazol-5-yl)-4H-pyrido[1,2-a]pyrimidin-4-one]	–	0.4 µg/mL (≈ 0.951 µM)	entirely insoluble
